This is an account of results in PMC4019751 (Bioorganic & medicinal chemistry letters, 2014).

In assay [1] the target is T1, recombinant purified human sEH (Homo sapiens, UniProt P34913).
T1 sequence (P34913 1-555): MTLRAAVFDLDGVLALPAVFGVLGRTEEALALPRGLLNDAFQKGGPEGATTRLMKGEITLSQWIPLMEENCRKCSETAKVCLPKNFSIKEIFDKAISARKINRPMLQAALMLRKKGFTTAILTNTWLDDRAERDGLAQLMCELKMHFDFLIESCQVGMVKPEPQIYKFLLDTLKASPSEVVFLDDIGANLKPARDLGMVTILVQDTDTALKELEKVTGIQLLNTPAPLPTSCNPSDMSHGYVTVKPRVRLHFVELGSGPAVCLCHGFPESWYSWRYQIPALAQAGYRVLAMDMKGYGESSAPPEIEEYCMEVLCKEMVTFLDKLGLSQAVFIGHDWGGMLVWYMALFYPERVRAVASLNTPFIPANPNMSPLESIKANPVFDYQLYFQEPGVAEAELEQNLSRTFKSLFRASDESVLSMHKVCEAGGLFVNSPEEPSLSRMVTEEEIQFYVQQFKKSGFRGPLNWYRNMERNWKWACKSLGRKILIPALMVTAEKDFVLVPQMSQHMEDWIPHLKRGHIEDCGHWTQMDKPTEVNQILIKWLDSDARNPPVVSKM
Briefly: sEH inhibition, kinetic fluorescent assay with CMNPC substrate. Type of assay: biochemical.

Another assay concerns the target T2, human sEH (Homo sapiens, UniProt P34913).
T2 sequence (P34913 1-555): T1 sequence (P34913 1-555)
Briefly: FRET competitive displacement assay. Type of assay: binding. Particulars: for residence time: read-out: t1/2 (residence time on the enzyme).

Turning to `O=C(NCC1CCN(C(=O)NCC23CC4CC(CC(C4)C2)C3)CC1)NCC12CC3CC(CC(C3)C1)C2` [1f], the “inhibition potency in words” value in assay [1] was “poor potency”.

`O=C(NCC12CC3CC(CC(C3)C1)C2)Nc1ccc(NC(=O)NCC23CC4CC(CC(C4)C2)C3)cc1` [1e]: the “inhibition potency in words” value in assay [1] is reported as “poor potency”.

With `O=C(NCCCCCCNC(=O)NCC12CC3CC(CC(C3)C1)C2)NCC12CC3CC(CC(C3)C1)C2` [1c], on human sEH, the koff came out at 0.00116 s⁻¹ and the residence time was determined as 10 min.

With `CC(NC(=O)NCCCCNC(=O)NC(C)C12CC3CC(CC(C3)C1)C2)C12CC3CC(CC(C3)C1)C2` (centres unmarked) [2b], on human sEH, the koff came to 0.00142 s⁻¹ and the residence time amounted to 8 min.

On to `O=C(NCCCCCCCCNC(=O)NC1C2CC3CC(C2)CC1C3)NC1C2CC3CC(C2)CC1C3` (centres unmarked) [3d], for which, at human sEH, the off-rate (koff) came to 0.00461 s⁻¹ and the residence time was 2.5 min.
